# Reference: patent US20100004333A1, “COMPOSITIONS AND METHODS FOR TREATING CARDIOVASCULAR DISORDERS” (priority 2004, published 2010)
# Experiments:
# [1] = test system: New Zealand White rabbits; assay: Rabbit aortic balloon-injury model: intimal hyperplasia; assay type: in vivo; conditions: 9 weeks, FIG. 21; for Protection against balloon injury-induced intimal hyperplasia: 0.02% wt/wt in chow, ABI at end of week three
# Experimental: Rabbit aortic balloon-injury model. Four groups of male New Zealand White rabbits (1.8-2.2 kg, Merunga Farm, Coffs Harbour, Australia), matched for body weight and baseline plasma cholesterol, were fed 100 g per day of normal chow±1% probucol, 0.02% DTBP, or 0.02% BP (wt/wt) for up to nine weeks. Aortic balloon-injury (ABI) was carried out at the end of week three, resulting in complete endothelial denudation. Harvesting of aortas was done after a further 6 weeks (n=6 per group). Aortic lesion assessment was carried out at the 3rd pair of lumber arteries in NZW rabbits as described in Circulation 2003, 107:2031-2036. Statistics. Data are expressed as mean±SEM. One-way ANOVA and the student-Newman-Keul's test were used to evaluate differences between groups, with P<0.05 considered significant.
# Materials and methods were as described in Examples 6 and 7, with the following addition. DTBP-s and STBP were synthesized as described in Example 10. A total of 48 New Zealand White rabbits (1.8-2.2 kg) were used for this example. Rabbits were fed normal chow (100 g/day) without (Ctrl, n=12) or with 0.02% DTBP (wt/wt, n=6), 0.02% STBP (wt/wt, n=7), 0.02% DTBP-s (wt/wt, n=11) or 0.1% DTBP-s (wt/wt, n=7) for 9 weeks. Aortic balloon-injury was carried out at the end of week three.
# [2] = test system: Heme oxygenase-1 mRNA; assay: HO-1 mRNA by real time RT-PCR in cultured rabbit aortic smooth muscle cells; assay type: cell-based; conditions: α-tocopherol 50 μM, 24 hours; FIG. 20A
# Experimental: (§1) Materials and methods were principally as described in Examples 6 and 7. Vitamin E (α-tocopherol for cellular studies, α-tocopheryl acetate for in vivo studies) was obtained from Sigma (St. Louis, Mo.). Heme oxygenase-1 mRNA was assessed by real time RT-PCR in rabbit aortic smooth muscle cells cultured for 24 hours in the presence of vehicle (control), probucol (50 μM) or α-tocopherol (50 μM) as described in (Circulation 2004; 110:1855-1860). Re-endothelialization was assessed by Evans blue staining (Circulation 2003; 107:2031-2036) 3 weeks after injury. Intima-to-media ratio of vessels from control rabbits and animals treated with probucol or α-tocopheryl acetate (n=6 per group) was also determined 3 weeks after aortic balloon injury, using 5 serial sections per aortic segment, 100 μm apart.
# [3] = test system: rabbits; assay: Rabbit aortic balloon injury, 3 weeks: re-endothelialization (Evans blue) and intima-to-media ratio, vitamin E; assay type: in vivo; conditions: α-tocopheryl acetate
# Experimental: as §1
structure (smiles),measurement,setting,value
"CC(C)(C)c1cc(S[Se]c2cc(C(C)(C)C)c(O)c(C(C)(C)C)c2)cc(C(C)(C)C)c1O [STBP, 2,6-di-t-butyl-4-(3,5-di-t-butyl-4-hydroxyphenylselanylthio)phenol]",Protection against balloon injury-induced intimal hyperplasia,[1],protected to a comparable extent
"CC(C)(C)c1cc(SSc2cc(C(C)(C)C)c(OC(=O)CCC(=O)O)c(C(C)(C)C)c2)cc(C(C)(C)C)c1O [DTBP-s, 4-(2,6-di-t-butyl-4-((3,5-di-t-butyl-4-hydroxyphenyl)disulfanyl)phenoxy)-4-oxobutanoic acid]",Protection against balloon injury-induced intimal hyperplasia,[1],"significant protection, albeit less effectively"
same,Protection against intimal hyperplasia: 0.02% DTBP-s compared with 0.1% DTBP-s,"[1]; 0.1% wt/wt DTBP-s, P<0.05 versus 0.02% DTBP-s","less effectively as that seen with STBP (0.02%, to wt/wt) and DTBP-s (0.1%, wt/wt)"
"Cc1c(C)c2c(c(C)c1O)CC[C@@](C)(CCC[C@H](C)CCC[C@H](C)CCCC(C)C)O2 [vitamin E, α-tocopherol]",Induction of HO-1 (mRNA) in vascular smooth muscle cells,[2],failed to induce HO-1
same,Intimal hyperplasia (intima-to-media ratio),"[3]; 3 weeks after aortic balloon injury, FIG. 20C",failed to inhibit intimal hyperplasia
same,Re-endothelialization (Evans blue),"[3]; 3 weeks after injury, FIG. 20B",did not promote re-endothelialization
